Experiments:
[1] = female, human, in vivo, 20 h
Experimental: Twelve healthy Caucasian women aged 54-62 years (mean 58.3 years), with a weight of 51 to 67 kg (mean 60.6 kg±5.1) and a body mass index ranging between 19.4-25.5 kg/m2 (mean 23.12 kg/m2±2.05) were enrolled. They were administered, on three separate treatment periods of one week, either two consecutive (3Z,5S) doses of 600 mg/day (administered to subjects using 3 dispersible tablets of 200 mg in 150 ml of water) or two intramuscular injections of 12 mg/day betamethasone or both drugs in combination.
Therefore, pharmacokinetic parameters of the treatment with (3Z,5S) dispersible tablets were calculated for 12 subjects, whereas pharmacokinetic parameters of the combination treatment were assessed for 11 participants.
During each treatment period of one week, blood samples were collected for the analysis of (3Z,5S) and betamethasone at time points 0 (pre-dose) and at 0.25, 0.5, 0.75, 1, 1.5, 2, 3, 4, 6, 8, 10, 12, 16, 20 and 24 hours after first dose on day 1. The plasma was prepared and stored below −20° C. All samples were analysed using validated LC-MS/MS methods. For the analysis of (3Z,5S), the lower limit of quantification was 1.0 ng/ml. For betamethasone analyses, the lower limit of quantification was 0.5 ng/ml.
Pharmacokinetic parameters were estimated by non-compartmental methods using the Phoenix® WinNonLin® version 6.3 (Pharsight). […]

[2] = Qualitative solubility/crystallisation tests in solvents (15 mg scale); assay type: physicochemical

SMILES: CO/N=C1/C[C@@H](CO)N(C(=O)c2ccc(-c3ccccc3C)cc2)C1 [(3Z,5S), (3Z,5S)-5-(hydroxymethyl)-1-[(2′-methyl-1,1′-biphenyl-4-yl)carbonyl]pyrrolidin-3-one-O-methyloxime]
- % of Cmax [1]: 25%
- Qualitative solubility, Dissolves in ([2]; solvent DIPE): 40 vol hot
- Qualitative solubility, Dissolves in ([2]; solvent IPA): 4 vol hot
- Qualitative solubility, Dissolves in ([2]; solvent MIBK): 4 vol hot
- Qualitative solubility, Dissolves in ([2]; solvent THF): 4 vol cold
- Qualitative solubility, Dissolves in / Comment ([2]; solvent heptanes): insoluble in 20 vol
- Qualitative solubility, Dissolves in ([2]; solvent tBuOH): 6 vol hot
- Qualitative solubility, Dissolves in ([2]; solvent toluene): 2 vol cold

From patent publication US20170065556A1, “ORAL FORMULATIONS OF PYRROLIDINE DERIVATIVES” (OBSEVA S.A., priority 2013, published 2017)
